Consider three sequences from patent US20260217863A1, “ANTIBODY OR PEPTIDE BINDING SPECIFICALLY TO RNASE A, IMMUNOASSAY DEVICE AND METHOD FOR DETECTING RNASE A, AND METHOD FOR COLLECTING RNASE A” (UIF (University Industry Foundation), Yonsei University, priority 2022, published 2026).

The experiment addresses T1, RNase A (Bos taurus, UniProt P61823).
T1 sequence (P61823 27-150): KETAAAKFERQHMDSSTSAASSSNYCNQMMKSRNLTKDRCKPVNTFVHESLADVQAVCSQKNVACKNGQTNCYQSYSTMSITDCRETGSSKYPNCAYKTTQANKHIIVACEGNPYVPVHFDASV
In words: RNA cleavage assay with total RNA from HeLa cells, agarose gel imaging. Type of experiment: biochemical, bovine. Details: Ribonuclease A (Type II-A) from bovine pancreas; purchased Sigma-Aldrich Korea; host or cells: bovine pancreas. The settings on record: RNase 0.7 μg/ml, agarose gel image analysis, read-out: IC50 for RNase A activity inhibition. How it is done:
The analysis of RNase inhibitory activity of Fv antibodies and synthetic peptides was performed using RNA samples extracted from HeLa cells as follows: (1) Mixing the RNA sample extracted from HeLa cells (600 ng) with 87.5 nM-5.6 μM under conditions of 37° C. for 30 minutes, (2) Electrophoresis on a 1% agarose gel at 90 V for 40 minutes. The estimation of RNase inhibitory activity was carried out by gel imaging of the cleaved RNA using a ChemiDoc XPS (Bio-Rad, CA, USA).
(§1) Using RNA samples extracted from HeLa cells, the RNase inhibitory activity of the synthesized peptides was estimated. The RNase inhibitory activity was assessed using agarose gel imaging of the cleaved RNA. To optimize the RNase concentration for the RNase inhibition assay, total RNA was treated with RNase A (600 ng), with RNase A concentrations ranging from 5.7 ng/ml to 3.6 μg/ml, and the cleaved RNA bands were observed after treatment with ETBR (ethidium bromide). […] The RNase concentration for inhibition analysis was determined to be 0.7 μg/ml, with RNase concentrations above 3.6 μg/ml. The inhibition analysis was performed by mixing total RNA from HeLa cells with RNase (0.7 μg/ml) and Fv-antibody at a concentration of 10 μM, resulting in the observation that the entire RNA was completely cleaved into small RNA bands in the absence of the Fv-antibody. […] The optimal concentration of the Fv-antibody for RNase inhibition was determined by the cleavage reaction with total RNA in the concentration range of 87.5 nM to 5.6 μM for Fv-antibodies (Fv-1, Fv-2, Fv-3).
The analysis of RNase inhibitory activity of Fv antibodies and synthetic peptides was performed using RNA samples extracted from HeLa cells as follows: (1) A mixture of RNA samples extracted from HeLa cells (600 ng) was prepared at concentrations of 87.5 nM-5.6 μM and incubated at 37° C. for 30 minutes; (2) Electrophoresis was conducted in a 1% agarose gel under 90 V for 40 minutes. The estimation of RNase inhibitory activity was carried out by gel imaging of the cleaved RNA using a ChemiDoc XPS (Bio-Rad, CA, USA).
as §1, with “the” for “the concentration”

Where no end group is shown, it is not given here.

In general, IC50 refers to the concentration that gives 50% inhibition.

Regarding CGPDSDVMTDF [Peptide-1], the IC50 was found to be 0.995 µM.
To DGTAKKSRKDD [Peptide-3] belongs 0.464 µM; to YGPVGRVKRDD [Peptide-2], 0.658 µM.
